Test results published in patent publication US20120129811A1, “TRICYCLIC INHIBITORS OF PRO-MATRIX METALLOPROTEINASE ACTIVATION” (priority 2010, published 2012).

How the values were obtained:
[1] = molecular target: T1, proMMP9 activation to active MMP9 in rat synoviocytes (Rattus norvegicus, UniProt P50282); experiment: Activation of proMMP9 in rat synoviocyte cultures (Western blot); assay type: cell-based
T1 construct: endogenous in cells; host or cells: primary synoviocytes from SCW-arthritic female Lewis rats, TNFα-stimulated
From the text: Activation of proMMP9 in Rat Synoviocyte Cultures
A primary synoviocytes line was derived from the periarticular tissue of arthritic rats. Arthritis was induced in female Lewis rats following an i.p. administration of streptococcal cell wall peptidoglycan polysaccharides (J Exp Med 1977; 146:1585-1602). Rats with established arthritis were sacrificed, and hind-limbs were severed, immersed briefly in 70% ethanol, and placed in a sterile hood. The skin was removed and the inflamed tissue surrounding the tibia-tarsal joint was harvested using a scalpel. Tissue from six rats was pooled, minced to approximately 8 mm^3 pieces, and cultured in Dulbecco's Modified Eagle's Medium (DMEM) containing 15% fetal calf serum (FCS). In the following weeks, cells migrated out of the tissue piece, proliferated, and formed a monolayer of adherent cells. The synoviocytes were lifted from culture plates with 0.05% trypsin and passaged weekly at 1:4 ratios in DMEM containing 10% FCS. Synoviocytes were used at passage 9 to investigate the ability of Compound-α to inhibit the maturation of MMP9 to active form.
Rat synoviocytes spontaneously expressed and activated MMP9 when cultured in collagen gels and stimulated with tumor necrosis factor-alpha (TNFα) (FIG. 1 and Table 3). Eight volumes of an ice-cold solution of 3.8 mg/mL rat tail collagen (Sigma Cat #C3867-1VL) were mixed with 1 volume of 1 M sodium bicarbonate and 1 volume of 10× Roswell Park Memorial Institute medium. The pH of the mixture was adjusted to pH 7 with 1 N sodium hydroxide and equal volumes of the pH-adjusted collagen solution were mixed with DMEM containing 0.8 million synoviocytes per mL. One half mL volumes were dispensed into Costar 24-well culture dishes and placed for one hr at 37° C. and 5% CO2, during which time the collagen solution formed a gel. Individual gels were dislodged into wells of 12-well Costar plates containing 1 mL/well of DMEM adjusted to contain 0.05% BSA and 100 ng/mL mouse TNFα (R&D Systems Cat #410-MT-010). […] After overnight culture at 37° C. and 5% CO2, wells were adjusted to contain an additional 0.5 mL of DMEM containing 0.05% BSA and Compound-α at 4× the final desired concentration (final culture volumes were 2 mL). The plates were cultured an additional 48 hrs, at which time 1 mL of conditioned media were harvested into fresh eppendorf tubes containing 40 μL/mL of a 50% slurry of gelatin-conjugated sepharose (GE Healthcare Cat #17-0956-01). Samples were rotated for 2 hrs at 4° C. before centrifugation 1 min×200 g. Supernatants were discarded. The gelatin-sepharose pellets were washed once with 1 mL of ice cold DMEM, resuspended in 50 μL of 2× reducing Leamli buffer and heated 5 min at 95° C. Fifteen μL of eluted proteins were resolved on 4-12% NuPAGE gels and transferred to 0.45 μm pore-sized nitrocellose blots. Next, blots were incubated in blocking buffer (5% milk in Tris-buffered saline containing 0.1% Tween-20) for 1 hr at RT and probed overnight (4° C.) with blocking buffer containing 1 μg/mL primary antibodies. Blots were next probed 1 hr at RT with 1/10,000 dilutions of goat anti-mouse IgG-HRP or goat anti-rabbit IgG-HRP (Santa Cruz) in blocking buffer and developed using SuperSignal® West Fempto Maximum Sensitivity Substrate. Chemiluminesence signal was analyzed using a ChemiDoc imaging system (BioRad Laboratories) and Quantity One® image software. Electrophoretic mobility was estimated based on the mobility of standards (Novex Sharp Pre-Stained Protein Standards P/N 57318). […]

[2] = molecular target: T2, proMMP9 processing to active MMP9 in HFL-1 cells (Homo sapiens, UniProt P14780); experiment: Activation of proMMP9 by human fetal lung fibroblast (HFL-1) cultures (Western blot); assay type: cell-based
T2 construct: host or cells: HFL-1 human fetal lung fibroblasts, TNFα plus neutrophil elastase
Procedure: Activation of proMMP 9 by Human Fetal Lung Fibroblast Cultures
Compound-α was assessed additionally for ability to block the maturation of proMMP9 to active MMP9 in cultures of human fetal lung fibroblasts (HFL-1, American Type Culture Collection # CCL-153). Unlike rat synoviocytes, HFL-1 cells were unable to process proMMP9 to the active form without addition of neutrophil elastase. […] Rather, the function of elastase in this assay may be to inactivate tissue inhibitors of matrix metalloproteinases (TIMPs) that repress endogenous pathways of MMP9 activation (Am J Respir Crit. Care Med; 1999; 159:1138-46).
HLF-1 were maintained in monolayer culture in DMEM with 10% FCS and were used between passage numbers 5-15. HLF-1 were embedded in collagen gels as described for rat SCW synoviocytes (vida supra). Half mL gels containing 0.4 million cells were dislodged into wells of 12 well Costar plates containing 1 mL/well of DMEM adjusted to contain 0.05% BSA and 100 ng/mL human TNFα (R&D Systems Cat #210-TA/CF). After overnight culture (37° C. and 5% CO2) wells were adjusted to contain an additional 0.5 mL of DMEM containing 0.05% BSA and with or without 13.2 μM Compound-α (final concentration was 3.3 μM Compound-α). Next, cultures were adjusted to contain 30 nM human elastase (Innovative Research). The plates were cultured an additional 72 hrs, at which time MMP9 secreted into the conditioned media was bound to gelatin-sepharose and evaluated by Western blot analysis as described for the rat synoviocyte cultures (vida supra). mAb-51/82 detected three forms of MMP9 in HFL-1 cultures.
A second experiment was performed to determine if the 80 kD form was mature active MMP9 and to determine the potency of Compound-α as an inhibitor of MMP9 maturation in this assay. HFL-1 cells embedded in collagen gels were cultured as described above in the presence of TNFα overnight and the cultures were then adjusted to contain 30 nM elastase and graded concentrations of Compound-α for an additional 72 hrs at which time MMP9 secreted into the conditioned media was bound to gelatin-sepharose and evaluated by Western blot analysis for active MMP9 using pAb-1246 raised against the N-terminal neoepitope of active MMP9 (Table 5). In the absence of Compound-α, pAb-1246 readily detected MMP9 with an electrophoretic mobility of approximately 80 kD. […] Inhibition occurred over a dose range with an IC50 of approximately 0.3 μM Compound-α.

T1 sequence (P50282 20-708 limits assumed): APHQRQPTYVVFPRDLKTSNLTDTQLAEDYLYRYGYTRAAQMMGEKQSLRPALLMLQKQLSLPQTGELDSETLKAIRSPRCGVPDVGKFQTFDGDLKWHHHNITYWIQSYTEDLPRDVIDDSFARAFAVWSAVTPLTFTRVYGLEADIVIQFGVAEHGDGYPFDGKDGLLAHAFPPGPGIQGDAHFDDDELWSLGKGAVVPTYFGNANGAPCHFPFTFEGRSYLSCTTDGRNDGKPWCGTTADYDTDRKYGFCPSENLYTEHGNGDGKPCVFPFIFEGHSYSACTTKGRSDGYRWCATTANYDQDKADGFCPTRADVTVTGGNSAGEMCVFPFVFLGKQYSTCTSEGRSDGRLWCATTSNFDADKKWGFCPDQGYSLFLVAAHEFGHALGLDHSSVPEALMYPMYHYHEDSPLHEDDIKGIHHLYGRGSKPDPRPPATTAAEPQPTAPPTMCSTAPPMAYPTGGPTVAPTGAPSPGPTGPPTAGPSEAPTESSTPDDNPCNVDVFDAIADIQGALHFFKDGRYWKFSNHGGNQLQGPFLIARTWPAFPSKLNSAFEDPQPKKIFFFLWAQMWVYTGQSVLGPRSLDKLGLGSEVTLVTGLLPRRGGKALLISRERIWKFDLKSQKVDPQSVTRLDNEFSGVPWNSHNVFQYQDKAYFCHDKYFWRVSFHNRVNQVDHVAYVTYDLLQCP
T2 sequence (P14780 20-707 limits assumed): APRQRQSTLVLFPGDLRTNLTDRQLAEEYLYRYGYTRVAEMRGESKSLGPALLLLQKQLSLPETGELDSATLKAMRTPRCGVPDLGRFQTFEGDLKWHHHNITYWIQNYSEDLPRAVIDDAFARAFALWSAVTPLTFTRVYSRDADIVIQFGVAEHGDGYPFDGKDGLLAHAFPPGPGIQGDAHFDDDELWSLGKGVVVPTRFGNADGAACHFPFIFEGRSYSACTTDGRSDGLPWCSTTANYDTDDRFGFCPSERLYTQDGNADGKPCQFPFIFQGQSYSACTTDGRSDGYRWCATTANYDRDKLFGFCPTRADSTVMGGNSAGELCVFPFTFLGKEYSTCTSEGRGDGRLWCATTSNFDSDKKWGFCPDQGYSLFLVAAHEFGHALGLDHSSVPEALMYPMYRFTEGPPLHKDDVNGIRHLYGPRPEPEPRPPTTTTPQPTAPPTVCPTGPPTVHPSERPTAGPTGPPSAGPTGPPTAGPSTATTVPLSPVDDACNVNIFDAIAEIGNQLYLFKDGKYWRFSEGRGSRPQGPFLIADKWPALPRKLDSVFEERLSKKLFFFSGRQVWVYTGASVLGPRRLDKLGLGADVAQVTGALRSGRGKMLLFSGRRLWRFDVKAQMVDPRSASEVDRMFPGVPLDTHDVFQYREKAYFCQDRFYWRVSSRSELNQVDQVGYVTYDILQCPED

Cc1nc(C)c(-c2csc(Nc3cc(S(N)(=O)=O)ccc3OC(C)C)n2)s1 [Compound α, 3-(2′,4′-Dimethyl-[4,5′]bithiazolyl-2-ylamino)-4-isopropoxy-benzenesulfonamide.HBr]
inhibition at 0.37 µM ([1]; 0.37 μM Compound-α, 80 kD active MMP9, pAb-1246): 12%
inhibition at 1.1 µM ([1]; 1.1 μM Compound-α, 80 kD active MMP9, pAb-1246): 46%
inhibition at 3.3 µM ([1]; 3.3 μM Compound-α, 80 kD active MMP9, pAb-1246): 86%
inhibition at 10 µM ([1]; 10 μM Compound-α, 80 kD active MMP9, pAb-1246): 97%
IC50 ([1]; rat synoviocytes, pAb-1246 band chemiluminescence, read-out: IC50 for inhibition of production of active MMP9): ~1100 nM
Signal, Total ([2]; 3.3 μM Compound-α, 30 nM elastase, final 72 hrs, mAb-L51/82): 91346 INT * mm^2
Percent of total signal, 80 kD ([2]; 3.3 μM Compound-α, mAb-L51/82): 7%
Percent of total signal, 86 kD ([2]; 3.3 μM Compound-α, mAb-L51/82): 47%
Percent of total signal, 100 kD ([2]; 3.3 μM Compound-α, mAb-L51/82): 46%
inhibition at 0.12 µM ([2]; HFL1, 0.12 μM Compound-α, active MMP9, pAb-1246): 0%
inhibition at 0.37 µM ([2]; HFL1, 0.37 μM Compound-α, active MMP9, pAb-1246): 73%
inhibition at 1.1 µM ([2]; HFL1, 1.1 μM Compound-α, active MMP9, pAb-1246): 99%
inhibition at 3.3 µM ([2]; HFL1, 3.3 μM Compound-α, active MMP9, pAb-1246): 100%
inhibition at 10 µM ([2]; HFL1, 10 μM Compound-α, active MMP9, pAb-1246): 100%
IC50 ([2]; HFL-1 cultures, pAb-1246, read-out: IC50 for inhibition of processing of proMMP9 to active MMP9): ~300 nM
